Source: patent publication US8093374B2, “Bismuth hyaluronate, the preparation method and the use thereof” (priority 2005, dated 2012)
Marks after values point to notes of the source that are not given here.

Assays:
[1] = test system: hydrochloric acid-ethanol-induced injury to gastric mucosa; experiment: Prevention and treatment of hydrochloric acid-ethanol-induced injury to gastric mucosa in rats; format: in vivo, Female Wistar rats; conditions: for Length of injury (x ± s): sacrificed 1 h after, negative control 97.50 ± 13.28
Protocol: Female Wistar rats weighing 150 to 200 g were used. Following the method described in the literature (Methodology of pharmacological studies of Chinese medicines, Beijing, People's Health Press, 1994: 441). The rats were fasted, with access to water, for 24 h. Then the rats were randomly divided (see above) and received intragastric administration. 30 min after the administration, each rat was drenched with hydrochloric acid-ethanol (a mixture of 50 ml of absolute ethanol and 1 ml of concentrated hydrochloric acid) at a dose of 0.5 ml/100 g of body weight. 1 h after the treatment with acidified ethanol, the animals were sacrificed, and their stomachs were removed and fixed in a formaldehyde solution. The stomach was cut open along the greater curvature and washed for examination of the injury to the gastric mucous membrane.

[2] = test system: acetic acid-induced gastric ulcer; experiment: Protecting effect on acetic acid-induced gastric ulcer in rats; format: in vivo, Female Wistar rats; conditions: for Area of Ulcer (x ± s): intragastric once daily for 10 consecutive days, negative control 15.71 ± 2.20; for Inhibition of Ulcer: intragastric once daily for 10 days, percentage of the control
From the text: Female Wistar rats weighing 150 to 200 g were used. Following the method described in literatures ((1) Pharmacological Test Methodology, 2nd edition, Beijing, People's Health Press, 1991, 1158-1160; (2) Guidelines for preclinical studies of new drugs (western medicines) (pharmacy, pharmacology, toxicology), 1993, 88-89), a model of acetic acid-induced gastric ulcer was made. Specifically, in an area of 5 mm in diameter on the serosal side of the body of stomach in rats under anesthesia with ether, gastric ulcer was induced by treatment with 0.2 ml of glacial acetic acid for 1.5 min. On the next day following the operation, animals were randomly divided into 6 groups and started on oral administration, with distilled water as negative control and colloidal bismuth pectin as positive control. The test samples are the bismuth hyaluronate of the present invention prepared according to the Preparation Example 1 (having a glucuronate content of 27.9% and a bismuth content of 30.7%) and the starting material sodium hyaluronate (having an average molecular weight of 9.1×10^5 and a glucuronate content of 38.9%). The rats received intragastric administration once daily in a volume of about 10 ml for 10 consecutive days. Then the animals were sacrificed, and their stomachs were removed and fixed in a formaldehyde solution. After dissection, the size of the gastric ulcer was determined by measuring under microscope the maximum longitudinal diameter (d1) and the maximum transverse diameter (d2) through the center of the ulcer, and calculating the area of ulcer using the following equation: S=π×(d1/2)×(d2/2). The inhibition of ulcer was expressed as the percentage of the control.

[3] = 50 mg/kg intragastric 30 min before hydrochloric acid-ethanol
[4] = 100 mg/kg intragastric 30 min before hydrochloric acid-ethanol
[5] = 150 mg/kg intragastric 30 min before hydrochloric acid-ethanol

Row | Substance | Inhibition of Ulcer [1, 3] | Length of injury (x ± s) [1, 3] | Inhibition of Ulcer [1, 4] | Length of injury (x ± s) [1, 4] | Inhibition of Ulcer [1, 5] | Length of injury (x ± s) [1, 5] | inhibition of acidified ethanol-induced gastric ulcer (in words) ([1]; rats, summary of Table 3) | inhibition of acidified ethanol-induced gastric ulcer compared with colloidal bismuth pectin (in words) ([1]; rats, versus positive control) | Area of Ulcer (x ± s) ([2]; 50 mg/kg) | Inhibition of Ulcer ([2]; 50 mg/kg) | Area of Ulcer (x ± s) ([2]; 100 mg/kg) | Inhibition of Ulcer ([2]; 100 mg/kg) | Area of Ulcer (x ± s) ([2]; 150 mg/kg) | Inhibition of Ulcer ([2]; 150 mg/kg) | inhibition of acetic acid-induced gastric ulcer (in words) ([2]; rats, summary of Table 2) | inhibition of acetic acid-induced gastric ulcer compared with colloidal bismuth pectin (in words) ([2]; rats, versus positive control)
1 | bismuth hyaluronate | 72.78% | 26.54 ± 7.88***^ΔΔ mm | 92.93% | 6.89 ± 1.86***^ΔΔΔ mm | 92.70% | 7.11 ± 2.13***^ΔΔΔ mm | statistically significant inhibition | significantly higher than the positive control | 5.92 ± 2.27** mm^2 | 62.32% | 4.98 ± 1.15***^Δ mm^2 | 68.30% | 4.05 ± 1.62***^ΔΔ mm^2 | 74.22% | statistically significant inhibition | significantly higher than the positive control
2 | colloidal bismuth pectin [reference compound] |  |  |  |  | 55.24% | 43.64 ± 9.55 mm |  |  |  |  |  |  | 7.15 ± 2.03* mm^2 | 54.48% |  | 
3 | sodium hyaluronate [reference compound] |  |  |  |  | 48.16% | 50.54 ± 11.98 mm |  |  |  |  |  |  | 10.25 ± 2.29 mm^2 | 34.75% |  | 
